In PubChem BioAssay (NCI):
Values joined by “and” are separate entries in the source; they are usually repeats but may differ in a detail not shown here. Identical values can stand only once.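 Method: 48-hour compound exposure of cells in 96-well plates, five concentrations, linear interpolation of endpoints. GI50 = concentration required for 50% inhibition of growth. Definition used: TGI = concentration required for complete inhibition of growth.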

What follows are molecules tested on NCI-H23 lung (assay: growth of human tumour cells (NCI), 48 h).

With `Cc1ccc(C(=O)/C(=C/c2ccc([N+](=O)[O-])cc2)SCc2ccc(Cl)cc2)cc1` as the molecule, how does the GI50 read?
The GI50 was 2.73 µM.

And the TGI?
The TGI was 20.7 µM.

What does the source list for `O=C(Nc1ccc(Cl)c(Cl)c1)Nc1ccc(Cl)c(Cl)c1`?
GI50: 2.63 µM and 2.4 µM; TGI: 10.2 µM and 11.4 µM

Which GI50 does the source give for `C#Cc1ccc(-n2c(/C=C/c3ccc(C(F)(F)F)cc3)nc3ncccc3c2=O)cc1` here?
Its GI50 is 3.9 µM.

What about the TGI of the same molecule?
The TGI was 19 µM.

How did the GI50 turn out when `COc1cc(/C=N/NC(=O)c2ccc(C(F)(F)F)nc2Nc2ccc(Cl)cc2C)ccc1O` was run?
The GI50 was 3.63 µM.

And the TGI?
Its TGI is 16.7 µM.

How did the TGI turn out when `O=C(N/C(=C\c1ccc(/C=C(\NC(=O)c2ccccc2)c2nc3cc([N+](=O)[O-])ccc3[nH]2)cc1)c1nc2cc([N+](=O)[O-])ccc2[nH]1)c1ccccc1` was run?
The TGI was > 100 µM.

For `COc1ccc(C(=O)Cn2c(C(=O)c3ccccc3)nc(-c3ccc(OC)cc3)c2-c2ccc(OC)cc2)cc1`, which GI50 is on record?
Its GI50 is > 100 µM.

And the TGI?
Its TGI is > 100 µM.

`O=C1c2ccccc2C2C1N2C(=O)C(F)(F)F` (configuration not stated) was tested. Which TGI did it give?
Its TGI is > 100 µM.

Which results are given for `CCOC(=O)[C@]1(OC(C)=O)C[C@H](OC(C)=O)[C@@H](C(F)COP(=O)(OCc2ccccc2)OCc2ccccc2)O1` (some centres not stated)?
GI50: 48.9 µM and > 100 µM; TGI: > 100 µM

`c1ccc2cc(-c3cc(-c4cc(-c5ccc6ccccc6c5)on4)no3)ccc2c1` was tested. Which TGI did it give?
Its TGI is > 100 µM.

`CC1(c2ccc(F)cc2)C(C#N)C(=O)NC(=O)C1C#N` (configuration not stated) was tested. Which TGI did it give?
The TGI was > 100 µM.

`O=C1C2C(C(=O)N1OS(=O)(=O)c1ccccc1)N(Cc1ccccc1)C(=O)N2Cc1ccccc1` (configuration not stated) was tested. Which TGI did it give?
The TGI was > 100 µM.

For `COc1cc(-c2nn(-c3ccc(NC(=O)c4ccc(Cl)c(C(F)(F)F)c4)cc3)cc2-c2ccncc2)ccc1Cl`, which GI50 is on record?
Its GI50 is 3.06 µM.

And the TGI?
Its TGI is > 100 µM.

How did the TGI turn out when `CN(C)CC[N+]1=Nc2cccc3cccc(c23)N1` was run?
The TGI was > 100 µM.

Which results are given for `COc1ccc2c(C3=C(c4cn(C)c5ccccc45)C(=O)NC3=O)cn(C)c2c1`?
GI50: 0.143 µM; TGI: > 25 µM

Which TGI does the source give for `Cc1ccc(N=Nc2ccc(N(CCC#N)CCC#N)cc2C)c(Br)c1` here?
The TGI was > 100 µM.

With `COc1ccc2c3c1C(=O)CCCC3CO2` (configuration not stated) as the molecule, how does the TGI read?
The TGI was > 100 µM.

What follows are molecules tested on OVCAR-4 ovarian (assay: growth of human tumour cells (NCI), 48 h).

For `CCCCC(=O)OCC(=O)[C@]1(O)Cc2c(O)c3c(c(O)c2[C@@H](OC2CC(NC(=O)C(F)(F)F)C(O)C(C)O2)C1)C(=O)c1c(OC)cccc1C3=O` (some centres not stated), which TGI is on record?
Its TGI is 8.71 µM.

`C[C@]12CC[C@H](O)CC1=CC[C@@H]1C2CC[C@]2(C)C(=O)N(N)C(=O)CC12` (some centres not stated) was tested. Which TGI did it give?
Its TGI is > 100 µM.

With `C=C(CN1CCN(c2ccc(Cl)cc2F)CC1)c1ccc(C(=O)Nc2ccccc2N)cc1` as the molecule, how does the TGI read?
The TGI was > 66.6 µM.

With `CC(C)=CC(=O)C1c2cccc(O)c2C(=O)c2c(O)cc(C)cc21` (configuration not stated) as the molecule, how does the TGI read?
Its TGI is 4.52 µM.

With `COC(CN1C(=O)c2cccc3cccc(c23)C1=O)OC` as the molecule, how does the TGI read?
The TGI was > 100 µM.

Which GI50 does the source give for `O=C(Nc1ccccc1)NS(=O)(=O)c1ccc(-n2nc3c(c2-c2cccs2)Cc2ccccc2-3)cc1` here?
The GI50 was 34.9 µM.

And the TGI?
The TGI was > 100 µM.

With `O=C1C=C(Cl)C(=O)C(c2ccc(Cl)cc2)=C1` as the molecule, how does the TGI read?
Its TGI is 51.6 µM.

`Cc1ccc2c(=O)cc(-c3ccc(F)cc3)[nH]c2n1` was tested. Which TGI did it give?
Its TGI is > 100 µM.

For `CCOc1ccc(NC(=O)C(=O)CC(=O)c2c[n+](=O)c3cc(C)c(C)cc3n2[O-])cc1`, which TGI is on record?
Its TGI is > 100 µM.

`Cn1cc(C2=C(c3cn(C)c4ncccc34)C(=O)NC2=O)c2ccccc21` was tested. Which GI50 did it give?
Its GI50 is 17.8 µM.

And the TGI?
Its TGI is > 25 µM.

How did the GI50 turn out when `O=C1C(Cl)=C(Nc2cccc(Cl)c2)C(=O)N1Cc1ccc(Cl)cc1Cl` was run?
Its GI50 is 0.508 µM.

What about the TGI of the same molecule?
The TGI was 7.41 µM.

With `O=C(/C=C/C12c3ccccc3C(c3ccccc31)C1C(=O)NC(=O)C12)c1ccncc1` (configuration not stated) as the molecule, how does the GI50 read?
The GI50 was 2.65 µM.

And the TGI?
The TGI was 9.7 µM.

With `CC12CCC(O)CC1CCC1C2CCC2(C)C(C3=CC(=O)OC3)CCC12O` (configuration not stated) as the molecule, how does the TGI read?
The TGI was 5.39 µM.

With `COc1ccc2c(c1)/C(=C/c1c(C)nc3sc(C)nn13)C(=O)N2` as the molecule, how does the GI50 read?
The GI50 was 14.7 µM.

What about the TGI of the same molecule?
The TGI was > 100 µM.

How did the GI50 turn out when `Cc1cc(I)cc(CN(C)CCCCN2CCCCC2)c1O` was run?
The GI50 was 28.3 µM.

What about the TGI of the same molecule?
The TGI was > 100 µM.

Which GI50 does the source give for `Cc1ccc(C(=O)/C(=C/c2ccc([N+](=O)[O-])cc2)SCc2ccc(Cl)cc2)cc1` here?
Its GI50 is 1.87 µM.

And the TGI?
The TGI was 6.37 µM.

How did the GI50 turn out when `O=C(Nc1ccc(Cl)c(Cl)c1)Nc1ccc(Cl)c(Cl)c1` was run?
Its GI50 is 2.98 µM and 3.57 µM.

What about the TGI of the same molecule?
Its TGI is 14.6 µM and 47.7 µM.

For `C#Cc1ccc(-n2c(/C=C/c3ccc(C(F)(F)F)cc3)nc3ncccc3c2=O)cc1`, which GI50 is on record?
Its GI50 is 1.58 µM.

What about the TGI of the same molecule?
The TGI was 3.29 µM.

Which GI50 does the source give for `COc1cc(/C=N/NC(=O)c2ccc(C(F)(F)F)nc2Nc2ccc(Cl)cc2C)ccc1O` here?
The GI50 was 1.54 µM.

And the TGI?
The TGI was 17 µM.

With `O=C(N/C(=C\c1ccc(/C=C(\NC(=O)c2ccccc2)c2nc3cc([N+](=O)[O-])ccc3[nH]2)cc1)c1nc2cc([N+](=O)[O-])ccc2[nH]1)c1ccccc1` as the molecule, how does the TGI read?
Its TGI is > 100 µM.

With `COc1ccc(C(=O)Cn2c(C(=O)c3ccccc3)nc(-c3ccc(OC)cc3)c2-c2ccc(OC)cc2)cc1` as the molecule, how does the GI50 read?
The GI50 was > 100 µM.

What about the TGI of the same molecule?
The TGI was > 100 µM.

How did the TGI turn out when `O=C1c2ccccc2C2C1N2C(=O)C(F)(F)F` (configuration not stated) was run?
Its TGI is > 100 µM.
